Tests used:
[1] = Capillary suction timer clay stabilization test; conditions: 2 g Bentonite in 100 g solution
Protocol: A rock sample was placed in a Gyral Grinder and grinding of the rock sample was begun. The rock sample was ground for 1 hour using a timer. The ground rock sample was placed into a 200-mesh sieve. The aggregate that passed through the sieve was placed in a pan for testing and placed to the side.
Using a 100 mL volumetric flask, a solution was prepared that will be used to mix with the rock sample. At least one solution should be prepared as the sample with straight tap water will be used as a reference blank. 100 g of solution was added to a 250 mL beaker equipped with a magnetic stir bar. A specified amount of each shale inhibitor was added to the beaker. The beaker was placed on stir plate and stirring was begun at a speed at which a vortex reaches the bottom of the beaker. 2 g of the untreated Bentonite sample was added and a timer was set for 5 minutes. After 5 minutes, the stir plate was turned off, the solution was poured into a 100 mL graduated cylinder, and a timer was set for 15 minutes. After 15 minutes, the mixture was poured back into the beaker, the beaker was placed on the magnetic stir plate and stirring was restarted on the plate. Wait until the vortex returned and the clay had become dispersed.
A Venture Innovations capillary suction timer (CST) from Venture Chemicals, Inc. in Lafayette, La. was used in the tests. Before each test, the test head, filter paper, and stainless steel funnel were cleaned and dried. Make sure the cable from the test head was plugged into the control box and the reading on the control box display was reset to zero. A piece of 7×9 cm CST filter paper from Venture Innovations Inc. (part no. IFP-9053) was placed on the test head with the stainless steel probes facing down. The stainless steel funnel was fitted into the test head.
Using a 5-mL syringe, 5-mL of sample was withdrawn from the vortex. Consecutive samples were removed from the same position in the vortex, where the previous sample was taken. A 5 mL sample was charged into the stainless steel funnel. The 5 mL sample charge was repeated twice more. Instrument started automatically when a beep sounds from the control box. When this beep sounded, the timer started. […]

[2] = test system: Fathead Minnow (pimephales promelas); assay: Acute toxicity minnow survival test; type: in vivo; conditions: for LC50: acute toxicity survival, Examples 4 and 5 range-finding and definitive test, TMAC and Example 3 range-finding test only; for toxicity to minnows compared with TMAC / prior art: comparison in words, data of Table II
Protocol: As a consequence, the “definitive” test gave a more precise LC50 value. LC50 was determined using a log-normal transformation coupled with linear regression between the bracketing no observed effect concentration (NOEC) and lowest observed effect concentration (LOEC). Both the range finding and definitive tests were run on Example 4 and Example 5. Only the ranging finding test was run for TMAC and Example 3.

[3] = Water release clay stabilization test; set-up: unit not given here; conditions: 100 mL of 1 wt. % Wyoming Bentonite clay solution
Protocol: (§1) Clay Solution Preparation
To make 1 wt. % clay solution, 23 g of Wyoming Bentonite Clay and 2277 g of distilled water were added to a bottle and shaken until all the clay was dissolved. […]
Measure 100 mL of clay solution into 6 graduated cylinders. […] The addition of the clay stabilizers at 0.1 mL, 0.2 mL, 0.4 mL, 0.6 mL, 0.8 mL, and 1.0 mL in 100 mL of a clay solution corresponds to 1, 2, 4, 6, 8 and 10 Gallons per Thousand (or gpt). Invert the cylinders 20 times. Start timer and record separation time and clay coagulation. Record clay deposition, swelling and water release.

[4] = Clay stabilization test (water separation from 1% clay solution); conditions: dosage 0.5 (wt. %/100 mL); 60 minutes; 100 mL of 1% clay solution; (Top)/(Middle) printed in cell
Protocol: as §1
To make 100 mL of a clay solution, measure 1 g of Cream Bentonite Clay or Weatherford Bentonite Clay material. Add 99 g of distilled water and shake bottle until all the clay is dissolved.
Measure 100 ml of clay solution in a graduated cylinder. Shake 10 times. Record separation time and clay precipitation.
Measure 100 mL of clay solution in a graduated cylinder and add 0.5 mL of the desired clay stabilizer. Shake 10 times. Record separation time and clay coagulation. Record clay deposition, swelling and water release.

[5] = Linear Swell after 23 hours; 6000 ppm; Bentonite pellet
Protocol: The Linear Swell Meter was OFITE 115V Dynamic Linear Swell Meter Model #150-80. 14 g of Bentonite was added to a pelletizercompactor and 10,000 psi pressure was applied for 30 minutes. The pellet was removed from the compactor. Ensure all components of the Linear Swell Meter are clean: transfer stand, cap for wafer tube, bottom plate, magnetic stir bar, Teflon washer, and cup. With both the screens in the linear swell meter cell, the swell meter was zeroed out by clicking on the specific cell(s) to be zeroed out and clicked “apply”. One of the screens from the cell was removed and the pellet was added on top of the other screen. The other screen was put on top of the pellet. The transfer stand was gently placed on top of the pellet. The cell was placed on the magnetic stir plate underneath the linear variable differential transformer (LVDT) to make sure that the spindle was directly centered on top of the transfer stand. The fluid to be tested was poured through the hole on the cap for the wafer tube, the box was checked to start the cell and “apply” was clicked. Doing this will start the test for the specific cell.

SMILES	CST Time ([1]; CST concentration 4000 ppm) [s]	LC50 [2] [µg/mL]	toxicity to minnows compared with TMAC / prior art [2]	WR (water release at 60 minutes) 2.0 gpt [3]	WR (water release at 60 minutes) 4.0 gpt [3]	WR (water release at 60 minutes) 6.0 gpt [3]	WR (water release at 60 minutes) 8.0 gpt [3]	WR (water release at 60 minutes) 10.0 gpt [3]	Final Water (mL) [4]	% Swell [5] [%]	CST Time ([1]; CST concentration 5000 ppm) [s]	CST Time ([1]; CST concentration 6000 ppm) [s]
OCC[N+](CCO)(CCO)Cc1ccccc1.[Cl-] [Example 4]	18	3160	much less toxic than TMAC	27	33	34	33	32	–	–	–	–
C[N+](C)(C)CCO.[Cl-] [Choline Chloride, reference compound]	–	–	–	–	–	–	–	–	27 mL/60 minutes (Top)	88.9	–	–
CCOS(=O)(=O)[O-].CC[N+](CCO)(CCO)CCO [Example 5]	90	6030	much less toxic than TMAC	2	9	22	26	31	20 mL/60 minutes (Middle)	–	68	92
C[N+](C)(C)C.[Cl-] [tetramethylammonium chloride, reference compound]	–	737	–	–	–	–	–	–	–	–	–	–

Reference: patent publication US20140262287A1, “ENVIRONMENTALLY FRIENDLY QUATERNARY SALTS OF AMINES AND THEIR USE AS TEMPORARY AND/OR PERMANENT CLAY STABILIZERS AND METHODS FOR MAKING AND USING SAME” (CLEARWATER INTERNATIONAL, LLC, priority 2013, published 2014)
